target: T1, Mushroom tyrosinase (Agaricus bisporus, UniProt O42713+Q00024+C7FF04+C7FF05); experiment: Inhibition of mushroom tyrosinase incubated for 10 mins by spectrophotometric analysis

SMILES | IC50 [nM]
CCCCCn1nc(-c2ccccc2)n(CC(=O)NNC(=S)Nc2cccc(F)c2)c1=O | 15200
CCCCCn1nc(-c2ccccc2)n(CC(=O)NNC(=O)Nc2cccc(Cl)c2)c1=O | > 20000
CCCCCn1nc(-c2ccccc2)n(CC(=O)NNC(=S)Nc2ccc(F)cc2)c1=O | 14
CCCCCn1nc(-c2ccccc2)n(CC(=O)NNC(=S)Nc2cccc(C(F)(F)F)c2)c1=O | > 20000
CCCCCn1nc(-c2ccccc2)n(CC(=O)NNC(=S)Nc2cc(Cl)cc(Cl)c2)c1=O | 170
CCCCCn1nc(-c2ccccc2)n(CC(=O)NNC(=O)Nc2cccc(F)c2)c1=O | > 20000
CCCCCn1nc(-c2ccccc2)n(CC(=O)NNC(=O)Nc2ccc(Cl)cc2)c1=O | > 20000
CCCCCn1nc(-c2ccccc2)n(CC(=O)NNC(=O)Nc2ccc(C(F)(F)F)cc2)c1=O | > 20000
CCCCCn1nc(-c2ccccc2)n(CC(=O)NNC(=S)Nc2ccccc2F)c1=O | > 20000
CCCCCn1nc(-c2ccccc2)n(CC(=O)NNC(=O)Nc2ccccc2Br)c1=O | > 20000
CCCCCn1nc(-c2ccccc2)n(CC(=O)NNC(=O)Nc2cccc(Br)c2)c1=O | > 20000
CCCCCn1nc(-c2ccccc2)n(CC(=O)NNC(=O)Nc2cc(C(F)(F)F)cc(C(F)(F)F)c2)c1=O | 1.97
CCCCCn1nc(-c2ccccc2)n(CC(=O)NNC(=S)Nc2ccccc2Br)c1=O | > 20000
CCCCCn1nc(-c2ccccc2)n(CC(=O)NNC(=O)Nc2cc(Cl)cc(Cl)c2)c1=O | > 20000
CCCCCn1nc(-c2ccccc2)n(CC(=O)NNC(=S)Nc2cc(C(F)(F)F)cc(C(F)(F)F)c2)c1=O | > 20000
CCCCCn1nc(-c2ccccc2)n(CC(=O)NNC(=O)Nc2ccccc2Cl)c1=O | > 20000
CCCCCn1nc(-c2ccccc2)n(CC(=O)NNC(=S)Nc2ccc(Cl)cc2)c1=O | 190
CCCCCn1nc(-c2ccccc2)n(CC(=O)NNC(=S)Nc2ccc(C(F)(F)F)cc2)c1=O | 1490
CCCCCn1nc(-c2ccccc2)n(CC(=O)NNC(=O)Nc2cccc(C(F)(F)F)c2)c1=O | 1.65
CCCCCn1nc(-c2ccccc2)n(CC(=O)NNC(=S)Nc2ccc(F)cc2F)c1=O | 19
CCCCCn1nc(-c2ccccc2)n(CC(=O)NNC(=S)Nc2ccc(Cl)cc2Cl)c1=O | > 20000
CCCCCn1nc(-c2ccccc2)n(CC(=O)NNC(=O)Nc2ccc(F)cc2F)c1=O | > 20000
CCCCCn1nc(-c2ccccc2)n(CC(=O)NNC(=S)Nc2cccc(Cl)c2)c1=O | 5400
CCCCCn1nc(-c2ccccc2)n(CC(=O)NNC(=O)Nc2ccc(Cl)cc2Cl)c1=O | 1.62
CCCCCn1nc(-c2ccccc2)n(CC(=O)NNC(=S)Nc2ccccc2Cl)c1=O | 4680
CCCCCn1nc(-c2ccccc2)n(CC(=O)NNC(=S)Nc2cccc(Br)c2)c1=O | > 20000

Further lines, results first:

IC50 [nM] | SMILES
> 20000 | CCCCCn1nc(-c2ccccc2)n(CC(=O)NNC(=O)Nc2ccc(Br)cc2)c1=O
19 | CCCCCn1nc(-c2ccccc2)n(CC(=O)NNC(=S)Nc2ccc(Br)cc2)c1=O

target: T1, Mushroom tyrosinase; experiment: Inhibition of mushroom tyrosinase using L-DOPA as substrate preincubated for 10 mins followed by substrate addition and measured after 20 mins by absorbance based analysis

SMILES | IC50 [nM]
O=C1OC(c2ccc([N+](=O)[O-])cc2)=NC(=S)C1c1nn[nH]n1 (stereo unspecified) | 81
O=C1C=C(Cn2cc(COc3ccc(CO)cc3)nn2)C(=O)C=C1O | 1320
O=C1OC(c2ccccc2Cl)=NC(=S)C1c1nn[nH]n1 (stereo unspecified) | 88
O=C1OC(c2cc([N+](=O)[O-])cc([N+](=O)[O-])c2)=NC(=S)C1c1nn[nH]n1 (stereo unspecified) | 75
O=C1OC(c2cccc(Cl)c2)=NC(=S)C1C1N=NN=N1 (stereo unspecified) | 71
O=C1C=C(Cn2cc(COc3cccc(F)c3)nn2)C(=O)C=C1O | 1070
Cc1ccc(C2=NC(=S)C(c3nn[nH]n3)C(=O)O2)cc1 (stereo unspecified) | 310
O=C1C=C(Cn2cc(COc3cccc(Cl)c3)nn2)C(=O)C=C1O | 990
N#Cc1ccc(OCc2cn(CC3=CC(=O)C(O)=CC3=O)nn2)cc1 | 6290
O=C1C=C(Cn2cc(COc3ccccc3)nn2)C(=O)C=C1O | 1330
COc1cc(OC)cc(OCc2cn(CC3=CC(=O)C(O)=CC3=O)nn2)c1 | 740
O=C1OC(c2cccc([N+](=O)[O-])c2)=NC(=S)C1C1N=NN=N1 (stereo unspecified) | 60
O=C1C=C(Cn2cc(COc3ccc(Br)cc3)nn2)C(=O)C=C1O | 6800
O=C1C=C(Cn2cc(COc3ccc([N+](=O)[O-])cc3)nn2)C(=O)C=C1O | 520
COc1ccc(OCc2cn(CC3=CC(=O)C(O)=CC3=O)nn2)cc1 | 1240
COc1ccc(C2=NC(=S)C(C3N=NN=N3)C(=O)O2)cc1 (stereo unspecified) | 73
O=C1OC(c2ccc(Cl)cc2Cl)=NC(=S)C1c1nn[nH]n1 (stereo unspecified) | 47
COc1cc(OCc2cn(CC3=CC(=O)C(O)=CC3=O)nn2)cc(OC)c1OC | 870
O=C1OC(c2ccc(Cl)cc2)=NC(=S)C1c1nn[nH]n1 (stereo unspecified) | 290
COc1cccc(OC)c1C1=NC(=S)C(c2nn[nH]n2)C(=O)O1 (stereo unspecified) | 200
O=C1C=C(Cn2cc(COc3ccc(F)cc3)nn2)C(=O)C=C1O | 880
CC(=O)Nc1ccc(OCc2cn(CC3=CC(=O)C(O)=CC3=O)nn2)cc1 | 2640
O=C1C=C(Cn2cc(COc3ccc(Cl)cc3)nn2)C(=O)C=C1O | 690
O=C1C=C(Cn2cc(COc3ccc(Cl)cc3Cl)nn2)C(=O)C=C1O | 1120

The next lines start with the values.

IC50 [nM] | SMILES
1010 | Nc1nc(Cc2nnc(SCC(=O)NCc3ccccc3)n2-c2ccccc2)cs1
130 | Nc1nc(Cc2nnc(SCC(=O)Nc3ccccc3)n2-c2ccccc2)cs1
2010 | Cc1cccc(NC(=O)CSc2nnc(Cc3csc(N)n3)n2-c2ccccc2)c1C
15 | Cc1ccccc1NC(=O)CSc1nnc(Cc2csc(N)n2)n1-c1ccccc1
51 | Cc1cccc(C)c1NC(=O)CSc1nnc(Cc2csc(N)n2)n1-c1ccccc1
240 | Cc1cc(C)cc(NC(=O)CSc2nnc(Cc3csc(N)n3)n2-c2ccccc2)c1
170 | CCOc1ccc(NC(=O)CSc2nnc(Cc3csc(N)n3)n2-c2ccccc2)cc1
65 | CCc1ccccc1NC(=O)CSc1nnc(Cc2csc(N)n2)n1-c1ccccc1
190 | CCc1cccc(C)c1NC(=O)CSc1nnc(Cc2csc(N)n2)n1-c1ccccc1
54 | Cc1ccc(NC(=O)CSc2nnc(Cc3csc(N)n3)n2-c2ccccc2)c(C)c1
16 | Nc1nc(Cc2nnc(SCC(=O)NCCc3ccccc3)n2-c2ccccc2)cs1
110 | Cc1ccc(NC(=O)CSc2nnc(Cc3csc(N)n3)n2-c2ccccc2)cc1C
58 | Cc1ccc(C)c(NC(=O)CSc2nnc(Cc3csc(N)n3)n2-c2ccccc2)c1
120 | CCc1ccc(NC(=O)CSc2nnc(Cc3csc(N)n3)n2-c2ccccc2)cc1

target: T1, Mushroom tyrosinase; experiment: Inhibition of mushroom tyrosinase using L-DOPA as substrate preincubated for 10 mins followed by substrate addition by absorbance based analysis

SMILES | IC50 [nM]
Oc1ccc(Cl)cc1/C=N/c1nnc(S)s1 | 1710
Sc1nnc(/N=C/c2cccc(Cl)c2)s1 | 4750
CC(C)(C)c1ccc(/C=N/c2nnc(S)s2)cc1 | 1400
O=[N+]([O-])c1ccccc1/C=N/c1nnc(S)s1 | 670
COc1cc(/C=N/c2nnc(S)s2)cc(OC)c1O | 473
S=c1[nH]nc(/N=C/c2ccc(Cl)cc2)s1 | 2460
Sc1nnc(/N=C/c2ccccc2)s1 | > 20000
Fc1ccccc1/C=N/c1nnc(S)s1 | 760
COc1ccccc1/C=N/c1nnc(S)s1 | 730
COc1cc(/C=N/c2nnc(S)s2)cc(OC)c1 | 5350
Oc1ccc(Br)cc1/C=N/c1nnc(S)s1 | 1970
Oc1ccccc1/C=N/c1nnc(S)s1 | 780
Sc1nnc(/N=C/c2ccc(Cl)c(Cl)c2)s1 | 3620
COc1cc(OC)c(/C=N/c2nnc(S)s2)c(OC)c1 | 900

Now from value to molecule:

IC50 [nM] | SMILES
460 | O=c1oc2ccccc2cc1C1=NN(c2nc(-c3ccc(Br)cc3)cs2)C(c2ccc(Cl)cc2)C1 (stereo unspecified)
970 | O=c1oc2ccccc2cc1C1=NN(c2nc(-c3ccc(Br)cc3)cs2)C(c2ccc(OCc3ccccc3)cc2)C1 (stereo unspecified)
220 | CN(C)c1ccc(C2CC(c3cc4ccccc4oc3=O)=NN2c2nc(-c3ccc(Br)cc3)cs2)cc1 (stereo unspecified)
130 | O=c1oc2ccccc2cc1C1=NN(c2nc(-c3ccc(Br)cc3)cs2)C(c2ccc([N+](=O)[O-])cc2)C1 (stereo unspecified)
380 | O=c1oc2ccccc2cc1C1=NN(c2nc(-c3ccc(Br)cc3)cs2)C(c2ccco2)C1 (stereo unspecified)
96 | O=c1oc2ccccc2cc1C1=NN(c2nc(-c3ccc(Br)cc3)cs2)C(c2ccccc2O)C1 (stereo unspecified)
870 | COc1ccc(C2CC(c3cc4ccccc4oc3=O)=NN2c2nc(-c3ccc(Br)cc3)cs2)cc1[N+](=O)[O-] (stereo unspecified)
260 | O=c1oc2ccccc2cc1C1=NN(c2nc(-c3ccc(Br)cc3)cs2)C(c2ccccc2)C1 (stereo unspecified)
230 | O=c1oc2ccccc2cc1C1=NN(c2nc(-c3ccc(Br)cc3)cs2)C(c2ccc(O)cc2)C1 (stereo unspecified)
28 | O=c1oc2ccccc2cc1C1=NN(c2nc(-c3ccc(Br)cc3)cs2)C(c2cc([N+](=O)[O-])ccc2Cl)C1 (stereo unspecified)
52 | O=c1oc2ccccc2cc1C1=NN(c2nc(-c3ccc(Br)cc3)cs2)C(c2ccc(Br)cc2)C1 (stereo unspecified)
83 | COc1ccc(C2CC(c3cc4ccccc4oc3=O)=NN2c2nc(-c3ccc(Br)cc3)cs2)cc1O (stereo unspecified)
37 | COc1cccc(C2CC(c3cc4ccccc4oc3=O)=NN2c2nc(-c3ccc(Br)cc3)cs2)c1O (stereo unspecified)
910 | O=c1oc2ccccc2cc1C1=NN(c2nc(-c3ccc(Br)cc3)cs2)C(c2cc([N+](=O)[O-])ccc2O)C1 (stereo unspecified)
17 | O=c1oc2ccccc2cc1C1=NN(c2nc(-c3ccc(Br)cc3)cs2)C(C2=CC3C=CC=CC3N2)C1 (stereo unspecified)
100 | CCn1c2ccccc2c2cc(C3CC(c4cc5ccccc5oc4=O)=NN3c3nc(-c4ccc(Br)cc4)cs3)ccc21 (stereo unspecified)

From ChEMBL document CHEMBL5331042, “Azole inhibitors of mushroom and human tyrosinases: Current advances and prospects of drug development for melanogenic dermatological disorders” (Eur J Med Chem, 2022)
